Test results published in patent publication US12428378B2, “Methods and materials for increasing level of phosphorylated AMPK protein” (University of Pittsburgh—Of the Commonwealth System of …, priority 2019, dated 2025).

System: pAMPK
Test: pAMPK immunostaining chemiluminescence assay in Beas2B cells
Type: cell-based
Settings: Homo sapiens, BEAS-2B, 18 h, DMEM no glucose media, compounds 3-34, 36-44, 47-60 tested as HCl salts, read-out: efficacy (minimal compound concentration needed to increase pAMPK by 30%)
Protocol: Beas2B cells were plated in 384 white nunc plate (4000 cells per well) for overnight. Compounds were serially diluted in DMEM no glucose media using the liquid handler. Cells were washed once using Biotek EL406 before compound addition for additional 18 hours. Cells were washed and fixed with PFA before immunostained with pAMPK primary antibody and anti-Rabbit HRP secondary antibody. Finally, 25 μl of ECL reagent will be added to cells, and chemical luminescence signal will be counted using plate reader. Compounds efficacies (μM) were determined by the minimal compound concentration needed to increase pAMPK by 30%. Activity: “+” equals >10 μM; “++” equals between ≤10 μM and >1 μM; and “+++” equals ≤1 μM.

SMILES	EC (30% increase)
O[C@@H](COc1ccc(C(F)(F)F)cc1)CN(Cc1ccccc1)Cc1ccccc1 [compound 1]	1 to 10 µM
O[C@H](COc1ccc(C(F)(F)F)cc1)CN(Cc1ccccc1)Cc1ccccc1 [compound 2]	1 to 10 µM
OC(COc1ccc(C(F)(F)F)cc1)CN(CC1CCCCC1)CC1CCCCC1 (stereo not shown) [compound 3]	1 to 10 µM
Cc1ccccc1CN(Cc1ccccc1C)CC(O)COc1ccc(C(F)(F)F)cc1 (stereo not shown) [compound 4]	≤ 1 µM
Cc1ccccc1CN(Cc1ccccc1)CC(O)COc1ccc(C(F)(F)F)cc1 (stereo not shown) [compound 5]	1 to 10 µM
OC(COc1ccc(C(F)(F)F)cc1)CN(CCc1ccccc1)Cc1ccccc1 (stereo not shown) [compound 6]	1 to 10 µM
OC(COc1ccc(C(F)(F)F)cc1)CN(Cc1cccnc1)Cc1cccnc1 (stereo not shown) [compound 7]	≤ 1 µM
Cc1ccccc1CN(Cc1cccnc1)CC(O)COc1ccc(C(F)(F)F)cc1 (stereo not shown) [compound 8]	≤ 1 µM
OC(COc1cccnc1)CN(Cc1ccccc1)Cc1ccccc1 (stereo not shown) [compound 9]	> 10 µM
OC(COc1ccccn1)CN(Cc1ccccc1)Cc1ccccc1 (stereo not shown) [compound 10]	1 to 10 µM
CN(CC(O)COc1ccc(C(F)(F)F)cc1)CC(c1ccccc1)c1ccccc1 (stereo not shown) [compound 11]	1 to 10 µM
CC(CNCC(O)COc1ccc(C(F)(F)F)cc1)(c1ccccc1)c1ccccc1 (stereo not shown) [compound 12]	1 to 10 µM
OC(COc1ccc(C(F)(F)F)cc1)CN(Cc1ccccc1)Cc1cncnc1 (stereo not shown) [compound 13]	≤ 1 µM
OC(CNCC(c1ccccc1)c1ccccc1)COc1ccc(C(F)(F)F)cc1 (stereo not shown) [compound 14]	> 10 µM
OC(COc1ncccn1)CN(Cc1ccccc1)Cc1ccccc1 (stereo not shown) [compound 15]	> 10 µM
OC(COc1cncnc1)CN(Cc1ccccc1)Cc1ccccc1 (stereo not shown) [compound 16]	1 to 10 µM
OC(COc1ccncc1)CN(Cc1ccccc1)Cc1ccccc1 (stereo not shown) [compound 17]	> 10 µM
Cc1cccc(C)c1OCC(O)CN(Cc1ccccc1)Cc1ccccc1 (stereo not shown) [compound 18]	≤ 1 µM
OC(COc1ccc(C(F)(F)F)cc1)CN1Cc2ccccc2C1 (stereo not shown) [compound 19]	> 10 µM
OC(COc1ccc(C(F)(F)F)cc1)CN1Cc2ccccc2CC1c1ccccc1 (stereo not shown) [compound 20]	1 to 10 µM
OC(COc1ccc(C(F)(F)F)cc1)CN1Cc2ccccc2C1c1ccccc1 (stereo not shown) [compound 22]	1 to 10 µM
Cc1ccccc1CN(Cc1cncnc1)CC(O)COc1ccc(C(F)(F)F)cc1 (stereo not shown) [compound 23]	≤ 1 µM
Cc1ccccc1CN(Cc1cccnc1)CC(O)COc1ccc(C(F)(F)F)cn1 (stereo not shown) [compound 24]	> 10 µM
OC(COc1ccc(C(F)(F)F)cc1)CN(Cc1cccnc1)Cc1ccccc1Cl (stereo not shown) [compound 25]	≤ 1 µM
Cc1ncccc1CN(Cc1ccccc1)CC(O)COc1ccc(C(F)(F)F)cc1 (stereo not shown) [compound 26]	≤ 1 µM
Cc1ccncc1CN(Cc1ccccc1)CC(O)COc1ccc(C(F)(F)F)cc1 (stereo not shown) [compound 27]	≤ 1 µM
Cc1ncccc1CN(Cc1cccnc1)CC(O)COc1ccc(C(F)(F)F)cc1 (stereo not shown) [compound 28]	≤ 1 µM

SMILES	EC (30% increase)
Cc1ccncc1CN(Cc1cccnc1)CC(O)COc1ccc(C(F)(F)F)cc1 (stereo not shown) [compound 29]	≤ 1 µM
Cc1ncccc1CN(Cc1cccnc1C)CC(O)COc1ccc(C(F)(F)F)cc1 (stereo not shown) [compound 30]	1 to 10 µM
Cc1ccncc1C1OC(COc2ccc(C(F)(F)F)cc2)CN1Cc1cccnc1 (stereo not shown) [compound 31]	1 to 10 µM
Cc1ccncc1CN(Cc1cccnc1C)CC(O)COc1ccc(C(F)(F)F)cc1 (stereo not shown) [compound 32]	≤ 1 µM
Cc1ccncc1CN(Cc1cnccc1C)CC(O)COc1ccc(C(F)(F)F)cc1 (stereo not shown) [compound 33]	1 to 10 µM
O=C(CCOc1ccc(C(F)(F)F)cc1)N(Cc1ccccc1)Cc1ccccc1 [compound 35]	1 to 10 µM
Cc1ccccc1CN(Cc1ncc[nH]1)CC(O)COc1ccc(C(F)(F)F)cc1 (stereo not shown) [compound 36]	≤ 1 µM
Cc1ccccc1CN(Cc1cc[nH]n1)CC(O)COc1ccc(C(F)(F)F)cc1 (stereo not shown) [compound 37]	1 to 10 µM
Cc1ccccc1CN(Cc1cnn(C)c1)CC(O)COc1ccc(C(F)(F)F)cc1 (stereo not shown) [compound 38]	1 to 10 µM
Cc1ccccc1CN(Cc1cnc[nH]1)CC(O)COc1ccc(C(F)(F)F)cc1 (stereo not shown) [compound 39]	1 to 10 µM
Cc1ccccc1CN(Cc1cncs1)CC(O)COc1ccc(C(F)(F)F)cc1 (stereo not shown) [compound 40]	≤ 1 µM
OC(COc1ccc(C(F)(F)F)cc1)CN(Cc1ccncc1)Cc1ccncc1 (stereo not shown) [compound 41]	1 to 10 µM
OC(COc1ccc(C(F)(F)F)cc1)CN(Cc1ccccn1)Cc1ccccn1 (stereo not shown) [compound 42]	≤ 1 µM
OC(COc1ccc(C(F)(F)F)cc1)CN(Cc1ccccc1)Cc1cccnc1 (stereo not shown) [compound 43]	≤ 1 µM
Cc1ccccc1CN(Cc1ccc(C(F)(F)F)nc1)CC(O)COc1ccc(F)cc1 (stereo not shown) [compound 44]	≤ 1 µM
Cc1ccccc1CN(CC(O)COc1ccc(C(F)(F)F)cc1)C(=O)c1cccnc1 (stereo not shown) [compound 45]	≤ 1 µM
CC(c1cccnc1)N(Cc1ccccc1)CC(O)COc1ccc(C(F)(F)F)cc1 (stereo not shown) [compound 46]	≤ 1 µM
[2H]C([2H])(c1cccnc1)N(Cc1ccccc1)CC(O)COc1ccc(C(F)(F)F)cc1 (stereo not shown) [compound 47]	≤ 1 µM
OC(COc1ccc(C(F)(F)F)cc1)CN(Cc1ccccc1)C1(c2cccnc2)CC1 (stereo not shown) [compound 48]	≤ 1 µM
Cc1ccccc1CN(Cc1cccc(C(N)=O)c1)CC(O)COc1ccc(C(F)(F)F)cc1 (stereo not shown) [compound 49]	1 to 10 µM
Cc1ccccc1CN(Cc1cccc(C#N)c1)CC(O)COc1ccc(C(F)(F)F)cc1 (stereo not shown) [compound 50]	> 10 µM
Cc1ccccc1CN(Cc1ccc[n+]([O-])c1)CC(O)COc1ccc(C(F)(F)F)cc1 (stereo not shown) [compound 51]	1 to 10 µM
Cc1ccccc1CN(CCc1ccccn1)CC(O)COc1ccc(C(F)(F)F)cc1 (stereo not shown) [compound 52]	1 to 10 µM
Cc1ccccc1CN(CC(O)COc1ccc(C(F)(F)F)cc1)c1cccc2ncccc12 (stereo not shown) [compound 54]	1 to 10 µM
Cc1ccccc1CN(CC(O)COc1ccc(C(F)(F)F)cc1)c1cccnc1 (stereo not shown) [compound 55]	1 to 10 µM
OC(COc1ccc(C(F)(F)F)cc1)CN1Cc2ccccc2CC1c1cccnc1 (stereo not shown) [compound 56]	≤ 1 µM
OC(COc1ccc(C(F)(F)F)cc1)CC1=Nc2ccccc2CC1c1cccnc1 (stereo not shown) [compound 57]	1 to 10 µM

SMILES	EC (30% increase)
Cc1ccccc1CN(Cc1ccc(=O)[nH]c1)CC(O)COc1ccc(C(F)(F)F)cc1 (stereo not shown) [compound 59]	1 to 10 µM
c1ccc(CN(CCCOc2ccccc2)Cc2ccccc2)cc1 [compound 61]	1 to 10 µM
O=C(CCOc1ccc(C(F)(F)F)cc1)N1Cc2ccccc2CC1c1cccnc1 (stereo not shown) [compound 62]	1 to 10 µM
Cc1ccccc1CN(Cc1cccnc1)C(=O)CCOc1ccc(C(F)(F)F)cc1 [compound 64]	1 to 10 µM
FC(F)(F)c1ccc(OCCCN2Cc3ccccc3CC2c2cccnc2)cc1 (stereo not shown) [compound 65]	≤ 1 µM
Cc1ccccc1CN(CC(O)COc1ccc(C(F)(F)F)cc1)C(=O)c1ccccc1 (stereo not shown) [compound 66]	≤ 1 µM
Cc1ccc(C(=O)N(Cc2ccccc2C)CC(O)COc2ccc(C(F)(F)F)cc2)cc1 (stereo not shown) [compound 67]	≤ 1 µM
Cc1ccccc1CN(CC(O)COc1ccc(C(F)(F)F)cc1)S(=O)(=O)c1cccnc1 (stereo not shown) [compound 68]	≤ 1 µM
Cc1ccccc1CN(Cc1c[nH]cn1)CC(O)COc1ccc(C(F)(F)F)cc1 (stereo not shown) [compound 69]	≤ 1 µM
Cc1ccccc1CN(Cc1nccs1)CC(O)COc1ccc(C(F)(F)F)cc1 (stereo not shown) [compound 70]	≤ 1 µM
Cc1ccccc1CN(Cc1sccc1C)CC(O)COc1ccc(C(F)(F)F)cc1 (stereo not shown) [compound 71]	1 to 10 µM
Cc1ccccc1CN(Cc1nccn1C)CC(O)COc1ccc(C(F)(F)F)cc1 (stereo not shown) [compound 72]	≤ 1 µM
Cc1ccccc1CN(Cc1c[nH]nc1-c1ccccc1)CC(O)COc1ccc(C(F)(F)F)cc1 (stereo not shown) [compound 73]	1 to 10 µM
Cc1ccccc1CN(CC(O)COc1ccc(C(F)(F)F)cc1)C(=O)c1c[nH]cn1 (stereo not shown) [compound 74]	1 to 10 µM
Cc1ccccc1CN(CC(O)COc1ccc(C(F)(F)F)cc1)C(=O)c1cc[nH]n1 (stereo not shown) [compound 75]	1 to 10 µM
Cc1ccccc1CN(CC(O)COc1ccc(C(F)(F)F)cc1)C(=O)c1cn[nH]c1 (stereo not shown) [compound 76]	1 to 10 µM
Cc1ccccc1CN(CC(O)COc1ccc(C(F)(F)F)cc1)C(=O)c1ncc[nH]1 (stereo not shown) [compound 77]	1 to 10 µM
Cc1ccccc1CN(CC(O)COc1ccc(C(F)(F)F)cc1)C(=O)c1cocn1 (stereo not shown) [compound 78]	≤ 1 µM
Cc1ccccc1CN(CC(O)COc1ccc(C(F)(F)F)cc1)C(=O)c1cnco1 (stereo not shown) [compound 79]	1 to 10 µM
Cc1ccccc1CN(CC(O)COc1ccc(C(F)(F)F)cc1)C(=O)c1cn(C)cn1 (stereo not shown) [compound 80]	1 to 10 µM
Cc1ccccc1CN(CC(O)COc1ccc(C(F)(F)F)cc1)C(=O)c1cncn1C (stereo not shown) [compound 81]	≤ 1 µM
Cc1ccccc1CN(CC(O)COc1ccc(C(F)(F)F)cc1)C(=O)c1cnn(C)c1 (stereo not shown) [compound 82]	≤ 1 µM
Cc1ccccc1CN(CC(O)COc1ccc(C(F)(F)F)cc1)C(=O)c1nccn1C (stereo not shown) [compound 83]	≤ 1 µM
Cc1ccccc1CN(CC(O)COc1ccc(C(F)(F)F)cc1)C(=O)c1nccs1 (stereo not shown) [compound 84]	≤ 1 µM
Cc1ccccc1CN(CC(O)COc1ccc(C(F)(F)F)cc1)C(=O)c1cscn1 (stereo not shown) [compound 85]	1 to 10 µM
